Measured values taken from patent US20120283280A1, “IMIDAZOTETRAZINONE-BASED COMBI-MOLECULES” (priority 2011, published 2012).
Entries after “also recorded” stand apart in the source; their conditions may differ.

How the values were obtained:
LNCaP-WT = assay: Growth inhibition assay (SRB), LNCaP-WT; conditions: 144 h, read-out: IC50 (x ± SD)
Protocol: (§1) Cell Culture: The human prostate cancer cell line DU145 was obtained from the American Type Culture Collection (Manassas, Va.)). The androgen-sensitive prostate cancer cell lines LNCaP-FGC, LNCaP-EGFR and LNCaP-erbB2 (stably transfected with EGFR erbB2 gene respectively) were generous gifts from Dr. Moulay Aloui-Jamali (Jewish General Hospital, Montreal, Quebec, Canada). […] The cultures were maintained in logarithmic growth by harvesting with a trypsin-EDTA solution containing 0.5 mg/mL trypsin and 0.2 mg/mL EDTA and replating before confluence. In all assays, the cells were plated over a period of time ranging from 24-48 h prior to drug administration.

[1] = Dose finding and comparative toxicity study in mice; type: in vivo; set-up: key to Vital Sign, Day 8 / Vital Sign, Day 10 / Vital Sign, Day 16 / Vital Sign, Day 1 / Vital Sign, Day 3 / Vital Sign, Day 6: Normal (i.e. No sign of Toxicity); BCS = 2: BCS (Body Condition Score) = 2 indicates that mice are underconditioned (observable signs include segmentation of the vertebral column, palpability of the dorsal pelvic bones)
Description: The results are further illustrated hereinbelow in Table 4.

DU145 cell line = assay: Mouse xenograft study (DU145); conditions: 100 mg/kg
[2] = test system: DU145, LNCaP, LNCaPEGFR, and LNCaPerb2 cell lines; assay: Growth inhibition assay (SRB), comparisons over all four cell lines; type: cell-based
Description: Each point represents the average of at least two independent experiments run in triplicate.

DU145 cells = assay: Annexin V binding analysis (apoptosis); type: cell-based, human; conditions: 25 μM, 48 h exposure
Protocol: Annexin V binding Analysis: Cells were pre-incubated in 6-well plates until confluence and then exposed to a dose range of each drug over a period 48 h. The cells were subsequently harvested and incubated with annexin V-FITC and propidium iodide (PI) using the apoptosis Detection Kit (BD Bioscience Pharmingen, USA) and the supplier's protocol. Annexin V-FITC and PI binding were analyzed using a Becton-Dickinson FACScan. Data were collected using logarithmic amplification of both the FL1 (FITC) and FL2 (PI) channels. Quadrant analysis of coordinate dot plots was performed with CellQuest software.
Induction of Apoptosis: Annexin V-FITC (FL1-H) and PI (FL2-H) staining (detected by flow cytometry) was used to distinguish viable (PI-/FITC−), early apoptotic (PI-/FITC+), late apoptotic (PI+/FITC+) and necrotic (PI+/FITC−) cells. […] JDF04R, Iressa and MTZ however, induced only barely detectable levels of apoptosis (<10%). The results are indicative that the combined EGFR TK inhibitory and DNA damaging properties of JDF12 can induce more cell apoptosis than observed with a single-function drug (e.g. Iressa and MTZ) alone (FIG. 7a-c).

DU145 = assay: Growth inhibition assay (SRB), DU145; conditions: Homo sapiens, DU-145, 144 h, read-out: IC50 (x ± SD)
Protocol: as §1

[3] = CD-1 mice (n = 6), 100 mg/kg once every other day

O=C(Nc1ccc2ncnc(Nc3cccc(Cl)c3)c2c1)c1ncn2c(=O)n(CCCl)nnc12 [JDF12]
IC50 (LNCaP-WT): 13.2 ± 3.88 µM | Vital Sign, Day 1 [1, 3]: Normal | Vital Sign, Day 3 [1, 3]: Normal | Vital Sign, Day 6 [1, 3]: Normal | Vital Sign, Day 8 [1, 3]: Normal | Vital Sign, Day 10 [1, 3]: Normal | Vital Sign, Day 16 [1, 3]: Normal | toxicity at 100 mg/kg ([1]; CD-1 mice, 100 mg/kg): no signs of toxicity; also recorded: minor toxicity | MTD at 14 days ([1]; male, CD-1, mouse, in vivo, mice, weight loss over a 14-day period, two animals per group, read-out: maximum tolerated dose): 100 mg/kg | weight loss during the efficacy study (DU145 cell line; CD-1 mice, FIG. 8c): No weight loss | antitumor activity (DU145 cell line; DU145 xenograft, 100 mg/kg i.p. every other day, 31 days after treatment): significant antitumor activity; also recorded: superior to that of an equidose of Iressa | increased anti-proliferation potency compared to Iressa (fold) ([2]; four cell lines): 2-3 fold | increased anti-proliferation potency compared to MTZ (fold) ([2]; four cell lines): 10-16 fold | more potent than equimolar combination of MTZ with Iressa or JDF04R (fold) ([2]; four cell lines): 1.7 fold | more potent than the equieffective 2-drug combination (fold) ([2]; identical conditions): more than 1.3 fold | late apoptosis (DU145 cells): significant increase in late apoptosis | IC50 (DU145): 11.3 ± 0.22 µM
